From patent US4737504A, “5-fluoro-and 8-fluoro-trimetoquinol compounds and the processes for their preparation” (priority 1986, dated 1988)
Where two headings read alike, the source gives them in different places.

Tests used:
adrenergic receptors = conditions: background; cited from earlier work
[1] = target: T1, U46619-induced contractions of rat thoracic aorta (Rattus norvegicus, UniProt P34978); assay: antagonism of U46619-induced contractions of rat thoracic aorta; format: cell-based, rat (male Sprague-Dawley); conditions: no analog (None); n = 16; read-out: pD2 of U46619 (control) (converted)
T1 construct: A 2-3 cm segment of thoracic aorta was excised; tissue Harlan Industries, Inc., Cumberland, IN (animals); host or cells: rat thoracic aorta, spirally cut strips
T1 sequence (P34978 1-341): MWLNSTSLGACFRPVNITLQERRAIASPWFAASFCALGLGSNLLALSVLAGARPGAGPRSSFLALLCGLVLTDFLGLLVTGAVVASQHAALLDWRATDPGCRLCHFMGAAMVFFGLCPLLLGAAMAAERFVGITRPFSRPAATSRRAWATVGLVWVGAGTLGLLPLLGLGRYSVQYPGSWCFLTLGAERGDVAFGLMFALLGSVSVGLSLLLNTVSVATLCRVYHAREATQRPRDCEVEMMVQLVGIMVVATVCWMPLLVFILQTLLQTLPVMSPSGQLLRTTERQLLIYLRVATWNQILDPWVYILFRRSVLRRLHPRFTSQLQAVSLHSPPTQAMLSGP
Description: The vasoconstrictive activity of U46619 (a stable thromboxane A2 agonist) on thoracic aorta tissue was determined as follows: Male Sprague-Dawley rats (Harlan Industries, Inc., Cumberland, IN) weighing between 250 and 350 gm were stunned and killed by cervical dislocation. A 2-3 cm segment of thoracic aorta was excised, cleaned of any adhering fat and connecting tissue, spirally cut into 2 matched strips, Constantine, supra. (2.0×0.3 cm). Strips were mounted in 10 ml tissue baths filled with the physiological salt solution in which 3×10^-6 M indomethaecin was present. A tension of 1 gm was applied to the strips. Responses of the tissues to drugs were monitored via Grass FT-03 isometric force transducers connected to a Grass Model 7C polygraph (Grass Instruments Co., Quincy, MA).
Some experiments were done in the absence of indomethacin. Concentration-dependent responses to U46619 were constructed in each preparation as described by Van Rossum, supra.
Effective concentration-50 (EC50) values of the agonists were determined graphically from individual plots of percent response versus log concentration. The potency of each agonist was expressed as a pD2 value where pD2 is equal to the negative logarithm of the experimentally determined EC50 value.
Antagonists were quantitated by calculating their pKB or pA2 values according to the methods of Furchgott, Ann. N.Y. Acad. Sci., 139: 553-570 (1967) and Arunlakshana et al., Br. J. Pharmacol., 14: 48-58 (1959). The pKB value is equivalent to the -log of [I]/(CR-1), where pKB is the negative logarithm of the apparent dissociation constant of the antagonist (KB), [I] is the concentration of the antagonist, and CR is the concentration ratio of the agonist EC50 in the presence of antagonist to the agonist EC50 in the absence of antagonist. To determine significant differences between pD2, pKB or pA2 values, a 5% level of significance was used. Arunlakshana plots were analyzed by computer according to the method of Tallarida et al., Manual of Pharmacological Calculations With Computer Programs, 29-31, (1981).

[2] = target: T2, β2-adrenoceptors (guinea pig trachea) (Cavia porcellus, UniProt Q8K4Z4); assay: relaxation of carbachol-contracted guinea pig tracheal strips (β2-adrenergic activity); format: cell-based, guinea pig (male albino Hartley)
T2 construct: the atria and trachea were quickly removed by standard procedures; tissue Glenn Carr, Columbus, OH (animals); host or cells: guinea pig trachea, spirally cut strips
Description: (§1) The β2 /β1 -adrenergic activity was determined using the following procedure: Male albino Hartley guinea pigs were employed in all experiments. The isolation and procedures for testing of each compound (10^-9 to 3×10^-5 M) with isolated guinea pig atria and trachea were identical with those described by Sober et al., J. Med. Chem., 24: 970, 1981.
Male guinea pigs (Hartley strain, Glenn Carr, Columbus, OH) weighing between 400 and 700 grams were reserpinized (5 mg/kg, i.p.) 12-16 hours before experiments. Animals were sacrificed by a sharp blow to the head and the atria and trachea were quickly removed by standard procedures (The Staff, University of Edinburgh, "Pharmacological Experiments on Isolated Preparation", Livingston, London, pp. 104-111, 1970). Trachea were spirally cut into 2 to 4 matched strips (Constantine, J. Pharm. Pharmac., 17: 34-35, 1965). Spontaneously beating atria and tracheal strips were mounted in 10 ml tissue baths filled with Krebs-Heinsleit solution (millimolar concentrations: NaCl, 118; KCl, 4.7; CaCl2 -2H2 O, 2.5; MgCl2 -6H2 O, 5.0; NaH2 PO4 H2 O, 1.0; NaHCO3, […]; and dextrose, 11) warmed to 37° C. and bubbled with 95% O2 :5% CO2. Tensions of 1 and 3 gm were applied to the atria and trachea, respectively.
Following a minimum 1 hour equilibration period, a concentration of 3×10^-7 M carbachol was administered to the strips.
(§2) Each drug concentration was added only after the effects of the previous concentration reached a maximum and remained constant. […] Responses for agonists were expressed as pD2 values (-log EC50) values and were calculated directly from graphical plots of % maximal response versus log molar drug concentration.

[3] = target: T3, β1-adrenoceptors (guinea pig atria) (Cavia porcellus, UniProt H0W3H1); assay: chronotropic response of spontaneously beating guinea pig right atria (β1-adrenergic activity); format: cell-based, guinea pig (male albino Hartley); conditions: read-out: IAR ± SEM (intrinsic activity ratio)
T3 construct: the atria and trachea were quickly removed by standard procedures; tissue Glenn Carr, Columbus, OH (animals); host or cells: guinea pig right atria, spontaneously beating
Description: as §1
Male guinea pigs (Hartley strain, Glenn Carr, Columbus, OH) weighing between 400 and 700 grams were reserpinized (5 mg/kg, i.p.) 12-16 hours before experiments. Animals were sacrificed by a sharp blow to the head and the atria and trachea were quickly removed by standard procedures (The Staff, University of Edinburgh, "Pharmacological Experiments on Isolated Preparation", Livingston, London, pp. 104-111, 1970). Trachea were spirally cut into 2 to 4 matched strips (Constantine, J. Pharm. Pharmac., 17: 34-35, 1965). […]
as §2

[4] = tested on: human platelets (U46619-induced aggregation); assay: inhibition of U46619-induced platelet aggregation in presence of aspirin, human platelet-rich plasma; format: cell-based
Description: (§3) The antiaggregatory and antisecretory activity on human platelets was determined by evaluating the in vitro aggregation and [^14 C]serotonin secretion in human platelet preparations. Blood was taken by venipuncture from normal human volunteers who were reported to be free of medication for at least 10 days before blood drawing. Venous blood samples were mixed with acid-citrate dextrose solution (9:1) and centrifuged at 120×g for 15 minutes at room temperature to obtain platelet-rich plasma, PRP, (Huzoor-Akbar et al., Biochem. Pharmacol., 30: 2013-2020, 1981). The PRP was transferred to polypropylene tubes and stored under an atmosphere of 8% CO2. The remaining blood was centrifuged at 1000×g for 10 minutes to obtain platelet-poor plasma. […] Platelet counts varied between 280,000 to 320,000 per cmm or were adjusted to 300,000 per cmm for the aggregation and secretion experiments. All studies were conducted within 2 hours after PRP recovery.
(§4) For aggregation studies, 0.5 ml of PRP was incubated with drug or vehicle (1-5 μl) for 1 minute at 37° C. before the initiation of aggregation with inducers. […] In all experiments, the minimum concentration of inducer (adenosine diphosphate ADP; epinephrine, E; 15S-hydroxy-11α,9α-epoxymethanoprosta-5Z,13E-dienoic acid, U46619; collagen; and arachidonic acid, AA) which caused maximal irreversible aggregation within each PRP preparation was used. Aggregation was monitored for 4 to 6 minutes after the addition of an inducer and data were presented as a percentage inhibition of either slope or maximal light transmittance changes in the presence of varying drug concentrations.

[5] = tested on: human platelets (U46619-induced serotonin secretion); assay: inhibition of U46619-induced serotonin secretion in presence of aspirin, human platelet-rich plasma; format: cell-based
Description: as §3, §4
(§5) Secretion data were calculated as the net increase of serotonin released into the supernatant by each inducer and expressed as a percentage of the total radioactivity in platelets Mayo et al., Biochem. Pharmacol., 30: 2237-2241, 1981. The effect of compounds on serotonin release was expressed as the percentage of inhibition of the maximum release by each inducer and plotted against the log molar concentrations of each agent.

[6] = tested on: human platelets (arachidonic acid-induced aggregation); assay: inhibition of arachidonic acid-induced platelet aggregation, human platelet-rich plasma; format: cell-based
Description: as §3, §4

[7] = tested on: human platelets (arachidonic acid-induced serotonin secretion); assay: inhibition of arachidonic acid-induced serotonin secretion, human platelet-rich plasma; format: cell-based
Description: as §3, §4, §5

[8] = tested on: human platelets (collagen-induced aggregation); assay: inhibition of collagen-induced platelet aggregation, human platelet-rich plasma; format: cell-based
Description: as §3, §4

[9] = tested on: human platelets (collagen-induced serotonin secretion); assay: inhibition of collagen-induced serotonin secretion, human platelet-rich plasma; format: cell-based
Description: as §3, §4, §5

[10] = tested on: human platelets (ADP-induced aggregation); assay: inhibition of the secondary phase of ADP-induced platelet aggregation, human platelet-rich plasma; format: cell-based
Description: as §3, §4

[11] = tested on: human platelets (ADP-induced serotonin secretion); assay: inhibition of ADP-induced serotonin secretion, human platelet-rich plasma; format: cell-based
Description: as §3, §4, §5

[12] = tested on: human platelets (epinephrine-induced aggregation); assay: inhibition of the secondary phase of epinephrine-induced platelet aggregation, human platelet-rich plasma; format: cell-based
Description: as §3, §4

[13] = tested on: human platelets (epinephrine-induced serotonin secretion); assay: inhibition of epinephrine-induced serotonin secretion, human platelet-rich plasma; format: cell-based
Description: as §3, §4, §5

human platelets [14] = assay: human platelet aggregation and serotonin release, inducers taken together; format: cell-based; conditions: each inducer
Description: as §3, §4, §5

[15] = phenol acidities (pKa) determined spectrophotometrically; format: physicochemical; conditions: phenol; tris(hydroxymethyl)aminomethane buffer; UV
Description: Phenol acidities (pKa) were determined spectrophotometrically, as described by Albert et al., "The determination of Ionization Constants" 3rd Ed., Chapman and Hall, London and New York, 1984, by measuring the absorption as a function of pH in tris(hydroxymethyl)aminomethane buffer. Since the catechols tended to oxidize in basic media the buffers were degassed and flushed with argon prior to use.

human platelets [16] = conditions: in vitro, background; cited from earlier work
[17] = background; cited from earlier work
[18] = cited from earlier work
[19] = read-out: IC50 platelet aggregation
[20] = read-out: pIC50 platelet aggregation (converted)
[21] = read-out: IC50 serotonin secretion
[22] = read-out: pIC50 serotonin secretion (converted)
[23] = read-out: IC50 platelet aggregation (secondary phase)
[24] = read-out: pIC50 platelet aggregation (secondary phase) (converted)

T2 sequence (Q8K4Z4 whole entry): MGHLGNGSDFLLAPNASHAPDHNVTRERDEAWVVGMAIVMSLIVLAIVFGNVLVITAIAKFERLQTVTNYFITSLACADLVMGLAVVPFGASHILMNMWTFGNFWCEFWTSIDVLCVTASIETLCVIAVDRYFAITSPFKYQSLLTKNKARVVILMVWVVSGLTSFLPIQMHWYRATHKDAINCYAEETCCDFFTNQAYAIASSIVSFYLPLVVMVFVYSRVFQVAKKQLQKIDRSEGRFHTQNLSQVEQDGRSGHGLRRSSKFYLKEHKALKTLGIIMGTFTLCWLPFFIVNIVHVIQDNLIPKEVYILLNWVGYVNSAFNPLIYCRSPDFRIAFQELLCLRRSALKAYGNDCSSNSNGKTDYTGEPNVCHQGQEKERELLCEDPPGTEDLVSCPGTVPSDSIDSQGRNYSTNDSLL
T3 sequence (H0W3H1 1-470): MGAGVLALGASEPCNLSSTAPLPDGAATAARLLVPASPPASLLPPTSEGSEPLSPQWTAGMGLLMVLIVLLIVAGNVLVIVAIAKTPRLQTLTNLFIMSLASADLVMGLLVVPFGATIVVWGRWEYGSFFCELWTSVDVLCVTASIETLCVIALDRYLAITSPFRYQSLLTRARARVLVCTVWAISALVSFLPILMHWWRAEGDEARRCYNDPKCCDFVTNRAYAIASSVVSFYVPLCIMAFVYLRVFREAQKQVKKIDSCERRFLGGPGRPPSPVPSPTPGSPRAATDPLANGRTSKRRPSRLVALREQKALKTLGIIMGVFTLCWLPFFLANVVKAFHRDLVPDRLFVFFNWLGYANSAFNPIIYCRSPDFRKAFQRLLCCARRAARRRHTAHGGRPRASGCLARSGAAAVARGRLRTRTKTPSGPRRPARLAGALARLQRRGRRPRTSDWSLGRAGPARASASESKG

SMILES: NCC(O)c1ccc(O)c(O)c1F (stereo not shown)
- adrenergic receptor activity/selectivity (adrenergic receptors): selective β-adrenergic agonist

SMILES: NCCc1ccc(O)c(O)c1F [2-fluoro-dopamine]
- adrenergic receptor activity/selectivity (adrenergic receptors): do not show selectivity for adrenergic receptors

SMILES: NCC(O)c1cc(O)c(O)cc1F (stereo not shown) [6-fluoro analog of norepinephrine]
- adrenergic receptor activity/selectivity (adrenergic receptors): selective β-adrenergic agonist

SMILES: NCCc1cc(O)c(O)cc1F [6-fluoro-dopamine]
- adrenergic receptor activity/selectivity (adrenergic receptors): do not show selectivity for adrenergic receptors

SMILES: CCCCC[C@H](O)/C=C/[C@@H]1[C@@H](C/C=C\CCCC(=O)O)[C@H]2CO[C@@H]1C2 [Compound U46619, 15S-hydroxy-11α,9α-epoxymethanoprosta-5Z,13E-dienoic acid, reference compound]
- EC50 [1]: 6.76 nM

SMILES: CNC[C@H](O)c1ccc(O)c(O)c1 [R-(-)-epinephrine]
- adrenergic receptor activity/selectivity (adrenergic receptors): more active than S-(+)-epinephrine on both α- and β-adrenergic receptors

SMILES: COc1cc(CC2NCCc3cc(O)c(O)cc32)cc(OC)c1OC (stereo not shown) [TMQ, trimetoquinol]
- EC50 [2]: 57.5 nM
- agonist activity on tracheal relaxation [2]: nearly equally active as an agonist on tracheal relaxation
- Emax ([2]; guinea pig, read-out: IAR ± SEM (intrinsic activity ratio)): 95 ± 1%
- Emax [3]: 100%
- IC50 [4, 19]: 440 nM
- IC50 [4, 20]: 437 nM
- IC50 [5, 21]: 720 nM
- IC50 [5, 22]: 692 nM
- IC50 [6, 19]: 1040 nM
- IC50 [6, 20]: 1050 nM
- IC50 [7, 21]: 1330 nM
- IC50 [7, 22]: 1260 nM
- IC50 [8, 19]: 930 nM
- IC50 [8, 20]: 933 nM
- IC50 [9, 21]: 620 nM
- IC50 [9, 22]: 589 nM
- IC50 [10, 23]: 340 nM
- IC50 [10, 24]: 269 nM
- IC50 [11, 21]: 230 nM
- IC50 [11, 22]: 200 nM
- IC50 [12, 23]: 1730 nM
- IC50 [12, 24]: 1660 nM
- IC50 [13, 21]: 1150 nM
- IC50 [13, 22]: 1020 nM
- inhibition of aggregation and serotonin release (human platelets [14]): inhibitors of aggregation and serotonin release by each inducer
- pKa [15]: 8.77 ± 0.15
- effect on arachidonic acid-mediated platelet aggregation (human platelets [16]): blocks endoperoxide/thromboxane arachidonic acid-mediated in vitro aggregation of human platelets
- side effects [17]: undesirable effect of also increasing the β1 -adrenergic activity which stimulates the heart

SMILES: CNC[C@H](O)c1ccc(O)c(O)c1 [epinephrine]
- adrenergic receptor activity/selectivity (adrenergic receptors): stimulates both α- and β-adrenergic receptors to about the same degree
- side effects [17]: tachycardia, elevated blood pressure, headache, and tremors

SMILES: CC(C)NCC(O)c1ccc(O)c(O)c1 (stereo not shown) [isoproterenol]
- duration of action ([18]; averaging): 1.5 to 2 h
- onset of action ([18]; bronchodilator, inhalation): 2 to 5 min
- adrenergic receptor activity/selectivity (adrenergic receptors): possesses little tissue selectivity and stimulates both β1 - and β2 -adrenergic receptors
- side effects [17]: undesirable tachycardia, increase in cardiac output and an elevation in blood pressure
